{"source": "paper PMC12692291", "about": "“Development and In Vitro Evaluation of [^64Cu]Cu-NOTA-TP-PSMA, a Novel Radiotheranostic Agent Against Prostate Cancer” (International Journal of Molecular Sciences, 2025)", "key": {"[1]": {"tested_on": "HEK-293 cells", "assay": "PrestoBlue cytotoxicity assay in HEK-293 cells", "assay_type": "cell-based, human", "settings": "consistently across time points; read-out: EC50 in HEK-293 cells", "procedure": "The cytotoxicity of compounds 1–3, ^natCu-NOTA-TP-PSMA, and cisplatin (platinum-based drug) were assessed with PrestoBlue, a resazurin-based method to assess mitochondrial function in LNCaP and HEK-293 cells at 24, 48, and 72 h. Effective concentration (EC50) values summarized in Table 3 were calculated from the dose–response curves of each compound (Figure S7).\nCytotoxicity was evaluated using a resazurin-based assay (PrestoBlue) in 96-well plates. LNCaP (15,000 cells/well) and HEK-293 (10,000 cells/well) were seeded and incubated for 72 h. Cells were then treated with serial dilutions of [^64Cu]Cu-NOTA-TP-PSMA and controls for 24, 48, or 72 h. After treatment, cells were rinsed with PBS and incubated with PrestoBlue reagent for 40 min. Fluorescence was measured at 570 nm (excitation) and 610 nm (emission). Background readings from blank wells were subtracted. Cell viability was calculated relative to untreated controls. IC50 values were determined using dose–response curves. Controls included [^64Cu]Cu-NOTA-TP, [^64Cu]Cu-NOTA-PSMA, ^natCu-NOTA-TP-PSMA, and cisplatin (0–500 µM in 0.9% saline). All assays were performed in triplicate and all data presented in Results are the average of three independent experiments. TP conjugates were dissolved in 1% DMSO and diluted in saline. Inhibitory concentration 50 (IC50) values were calculated to quantify the effectiveness of the compounds."}, "[2]": {"tested_on": "LNCaP cells", "assay": "Cellular uptake and internalization in LNCaP cells", "assay_type": "cell-based", "procedure": "LNCaP cells (1 × 10^5 cells/well) were seeded into 24-well plates and incubated for 72 h. Cells were treated with 1nM [^64Cu]Cu-NOTA-TP-PSMA or control monomers ([^64Cu]Cu-NOTA-TP and [^64Cu]Cu-NOTA-PSMA), each containing 0.1 MBq of radioactivity in RPMI-1640 medium.\nUptake and internalization were assessed at multiple time points (30 min to 24 h). At each timepoint, cells were washed with cold PBS, detached with trypsin, and counted using a hemocytometer. For internalization studies, surface-bound radioactivity was removed using 50 mM glycine-HCl buffer (pH 2.2) for 5 min, followed by additional PBS washes.\nTo investigate the internalization mechanism, parallel experiments were conducted at 4 °C to evaluate passive versus active uptake. Receptor specificity was assessed via blocking assays using 1 µM ^natCu-NOTA-TP-PSMA (1000-fold excess) co-incubated with 1 nM radiolabeled tracer. Post-incubation, intracellular radioactivity was quantified using a HIDEX gamma counter. All results were normalized to 10^6 cells and expressed as percent counts per minute per million cells (%CPM/10^6 cells)."}, "[3]": {"tested_on": "HEK-293 cells", "assay": "Cellular uptake and internalization in HEK-293 cells", "assay_type": "cell-based, human"}}, "data": [{"smiles": "O=C(O)CC[C@H](NC(=O)N[C@@H](CCCCNC(=O)[C@@H](Cc1ccc2ccccc2c1)NC(=O)C1CCC(CNC(=O)C(CCCCNC(=O)c2cc3[n+]4c(c2)-c2cccc[n+]2[Pt-2]4([Cl])[n+]2ccccc2-3)NC(=O)COCCOCCNC(=O)CN2CCN3CCN(CC2)CC(=O)[O][64Cu][O]C(=O)C3)CC1)C(=O)O)C(=O)O", "note": "(some centres unmarked) [[^64Cu]Cu-NOTA-TP-PSMA 1]", "values": [{"measurement": "EC50", "setting": "[1]", "result": "> 250", "unit": "nM"}, {"measurement": "internalization fold greater in LNCaP than HEK-293", "setting": "[2]; 24 h", "result": "approximately 6 fold"}, {"measurement": "uptake fold greater in LNCaP than HEK-293", "setting": "[2]; 24 h", "result": "approximately 8 fold"}, {"measurement": "fold decrease of internalization/uptake at 4 °C versus 37 °C", "setting": "[2]; LNCaP", "result": "~ 10 fold"}, {"measurement": "Internalization at 4 °C", "setting": "[2]; LNCaP, 4 °C, 24 h", "result": "3.9 ± 0.5", "unit": "%CPM/10^6 cells"}, {"measurement": "Internalization", "setting": "[2]; LNCaP, 24 h, 37 °C, 1 nM", "result": "44.9 ± 7.3", "unit": "%CPM/10^6 cells"}, {"measurement": "Uptake", "setting": "[2]; LNCaP, 24 h, 37 °C, 1 nM", "result": "65.9 ± 8.6", "unit": "%CPM/10^6 cells"}, {"measurement": "fold decrease of internalization/uptake at 4 °C versus 37 °C", "setting": "[2]; LNCaP, listed as [^64Cu]Cu-NOTA-TP-PSMA", "result": "> 10", "unit": "fold"}, {"measurement": "Uptake", "setting": "[2]; Table S1, LNCaP, 1 h", "result": "16.52 ± 5.38", "unit": "%ID/10⁶ cells"}, {"measurement": "Uptake blockage", "setting": "[2]; Table S1, LNCaP, 1 h, 1 µM natCu-NOTA-TP-PSMA (1000-fold excess)", "result": "11.06 ± 5.93", "unit": "%ID/10⁶ cells"}, {"measurement": "Uptake blockage", "setting": "[2]; Table S1, LNCaP, 2 h, 1000-fold excess blocking", "result": "16.36 ± 7.23", "unit": "%ID/10⁶ cells"}, {"measurement": "Uptake", "setting": "[2]; Table S1, LNCaP, 4 h", "result": "44.61 ± 16.49", "unit": "%ID/10⁶ cells"}, {"measurement": "Uptake blockage", "setting": "[2]; Table S1, LNCaP, 4 h, 1000-fold excess blocking", "result": "18.70 ± 10.46", "unit": "%ID/10⁶ cells"}, {"measurement": "Uptake", "setting": "[2]; Table S1, LNCaP, 20 h", "result": "62.88 ± 9.10", "unit": "%ID/10⁶ cells"}, {"measurement": "Uptake blockage", "setting": "[2]; Table S1, LNCaP, 20 h, 1000-fold excess blocking", "result": "30.68 ± 11.43", "unit": "%ID/10⁶ cells"}, {"measurement": "Uptake", "setting": "[2]; Table S1, LNCaP, 24 h", "result": "65.87 ± 8.37", "unit": "%ID/10⁶ cells"}, {"measurement": "Uptake blockage", "setting": "[2]; Table S1, LNCaP, 24 h, 1000-fold excess blocking", "result": "37.00 ± 13.09", "unit": "%ID/10⁶ cells"}, {"measurement": "Internalization LNCaP", "setting": "[2]; Table S2, 1 h", "result": "11.91 ± 5.75", "unit": "%ID/10⁶ cells"}, {"measurement": "Uptake LNCaP", "setting": "[2]; Table S2, 1 h", "result": "16.52 ± 5.53", "unit": "%ID/10⁶ cells"}, {"measurement": "Internalization LNCaP", "setting": "[2]; Table S2, 2 h", "result": "17.07 ± 6.19", "unit": "%ID/10⁶ cells"}, {"measurement": "Uptake LNCaP", "setting": "[2]; Table S2, 2 h", "result": "28.67 ± 9.74", "unit": "%ID/10⁶ cells"}, {"measurement": "Internalization LNCaP", "setting": "[2]; Table S2, 4 h", "result": "30.27 ± 8.92", "unit": "%ID/10⁶ cells"}, {"measurement": "Uptake LNCaP", "setting": "[2]; Table S2, 4 h", "result": "44.61 ± 16.99", "unit": "%ID/10⁶ cells"}, {"measurement": "Internalization LNCaP", "setting": "[2]; Table S2, 20 h", "result": "42.49 ± 9.41", "unit": "%ID/10⁶ cells"}, {"measurement": "Uptake LNCaP", "setting": "[2]; Table S2, 20 h", "result": "62.88 ± 9.37", "unit": "%ID/10⁶ cells"}, {"measurement": "Internalization LNCaP", "setting": "[2]; Table S2, 24 h", "result": "44.94 ± 7.32", "unit": "%ID/10⁶ cells"}, {"measurement": "Uptake LNCaP", "setting": "[2]; Table S2, 24 h", "result": "65.87 ± 8.61", "unit": "%ID/10⁶ cells"}, {"measurement": "fold higher internalization compared to [64Cu]Cu-NOTA-PSMA", "setting": "[2]; cancer cells (LNCaP), 24 h", "result": 2.7, "unit": "fold"}, {"measurement": "fold higher internalization compared to [64Cu]Cu-NOTA-TP", "setting": "[2]; cancer cells (LNCaP), 24 h", "result": 1.2, "unit": "fold"}, {"measurement": "Internalization", "setting": "[3]; HEK-293, 24 h", "result": "7.6 ± 1.7", "unit": "% CPM/10^6 cells"}, {"measurement": "Uptake", "setting": "[3]; HEK-293, 24 h", "result": "8.30 ± 1.63", "unit": "%CPM/10^6 cells"}, {"measurement": "Internalization HEK-293", "setting": "[3]; Table S2, 1 h", "result": "4.46 ± 6.12", "unit": "%ID/10⁶ cells"}, {"measurement": "Uptake HEK-293", "setting": "[3]; Table S2, 1 h", "result": "3.15 ± 0.53", "unit": "%ID/10⁶ cells"}, {"measurement": "Internalization HEK-293", "setting": "[3]; Table S2, 2 h", "result": "3.34 ± 1.41", "unit": "%ID/10⁶ cells"}, {"measurement": "Uptake HEK-293", "setting": "[3]; Table S2, 2 h", "result": "3.78 ± 0.95", "unit": "%ID/10⁶ cells"}, {"measurement": "Internalization HEK-293", "setting": "[3]; Table S2, 4 h", "result": "3.26 ± 0.44", "unit": "%ID/10⁶ cells"}, {"measurement": "Uptake HEK-293", "setting": "[3]; Table S2, 4 h", "result": "5.27 ± 1.00", "unit": "%ID/10⁶ cells"}, {"measurement": "Internalization HEK-293", "setting": "[3]; Table S2, 20 h", "result": "6.12 ± 0.88", "unit": "%ID/10⁶ cells"}, {"measurement": "Uptake HEK-293", "setting": "[3]; Table S2, 20 h", "result": "8.00 ± 2.25", "unit": "%ID/10⁶ cells"}, {"measurement": "Internalization HEK-293", "setting": "[3]; Table S2, 24 h", "result": "7.65 ± 1.67", "unit": "%ID/10⁶ cells"}, {"measurement": "Uptake HEK-293", "setting": "[3]; Table S2, 24 h", "result": "8.30 ± 1.63", "unit": "%ID/10⁶ cells"}]}]}
